Experimental data from patent publication US20170281758A1, “CAL[…] DRUG […] AN A[…] TO A SUGAR MOIETY ON CALICHEAMICIN” (Sorrento Therapeutics, Inc., priority 2016, published 2017).

Key:
JIMT-1 (Her2+++) = settings: anti-HER2 IgG ADC, treatment 5 days, 50% cell growth inhibition
Method: (§1) The antibody used was an anti-HER2 IgG class of antibody. Seven breast cancer cell lines with various level of Her2 expression as indicated with plus or minus signs in the table below were plated in 96 well plate. The ADCs as listed under Drug-Linker ID were serial diluted and added onto cells for treatment for 5 days. At the end of the study, cell proliferation was measured by Promega's CellTitreGlo.

MCF-7 (Her2+/−) = settings: anti-HER2 IgG ADC, treatment 5 days, 50% cell growth inhibition
Method: as §1

BT474 (Her2+++) = settings: anti-HER2 IgG ADC, treatment 5 days, 50% cell growth inhibition
Method: as §1

MDA-453 (Her2++) = settings: anti-HER2 IgG ADC, treatment 5 days, 50% cell growth inhibition
Method: as §1

MDA468 (Her2−) = settings: anti-HER2 IgG ADC; MDA468 (Her2−) control cell line; treatment 5 days; 50% cell growth inhibition
Method: as §1

SKBR-3 (Her2+++) = settings: anti-HER2 IgG ADC, treatment 5 days, 50% cell growth inhibition
Method: as §1

[1] = tested on: Seven breast cancer cell lines with various level of Her2 expression; test: Overall assessment of anti-HER2 ADCs over the cell panel (efficacy, toxicity, therapeutic window); format: cell-based
Method: as §1

HCC1954 (Her2+++) = settings: anti-HER2 IgG ADC, treatment 5 days, 50% cell growth inhibition
Method: as §1

Compound | EC50 (JIMT-1 (Her2+++)) [nM] | EC50 (MCF-7 (Her2+/−)) [nM] | EC50 (BT474 (Her2+++)) [nM] | EC50 (MDA-453 (Her2++)) [nM] | EC50 (MDA468 (Her2−)) [nM] | EC50 (SKBR-3 (Her2+++)) [nM] | Assessment of efficacy and toxicity / therapeutic window [1] | EC50 (HCC1954 (Her2+++)) [nM]
CCN(C(=O)CNC(=O)OCc1ccc(NC(=O)[C@H](C)NC(=O)[C@@H](NC(=O)CCCC(=O)O)C(C)C)cc1)C1COC(OC2C(O[C@H]3C#C/C=C\C#C[C@]4(O)CC(=O)C(NC(=O)OC)=C3/C4=C\CSSC(C)CCC(=O)NC3C(O)OC(CO)C(O)C3O)OC(C)C(NOC3CC(O)C(SC(=O)c4c(C)c(I)c(OC5OC(C)C(O)C(OC)C5O)c(OC)c4OC)C(C)O3)C2O)CC1OC (stereo partly drawn) [Compound 40] | 0.35 | 90 | 0.9 | 0.1 | 41.7 | 0.657 | successful candidates with high efficacy and good therapeutic window | –
CCN(C(=O)CNC(=O)OCc1ccc(NC(=O)[C@H](CC(N)=O)NC(=O)[C@H](C)NC(=O)[C@H](C)NC(=O)CCC(=O)N2CCC(C(=O)O)CC2)cc1)C1COC(OC2C(O[C@H]3C#C/C=C\C#C[C@]4(O)CC(=O)C(NC(=O)OC)=C3/C4=C\CSSC(C)(C)CC(=O)NCC(O)CO)OC(C)C(NOC3CC(O)C(SC(=O)c4c(C)c(I)c(OC5OC(C)C(O)C(OC)C5O)c(OC)c4OC)C(C)O3)C2O)CC1OC (stereo partly drawn) [Compound 15] | 0.17 | > 100 | 1.46 | – | – | 0.17 | successful candidates with high efficacy and good therapeutic window | 0.064
CCN(C(=O)CNC(=O)OCc1ccc(NC(=O)[C@H](C)NC(=O)[C@@H](NC(=O)CCCC(=O)O)C(C)C)cc1)C1COC(OC2C(O[C@H]3C#C/C=C\C#C[C@]4(O)CC(=O)C(NC(=O)OC)=C3/C4=C\CSSC(C)CCC(=O)NCC(O)CO)OC(C)C(NOC3CC(O)C(SC(=O)c4c(C)c(I)c(OC5OC(C)C(O)C(OC)C5O)c(OC)c4OC)C(C)O3)C2O)CC1OC (stereo partly drawn) [Compound 37] | 0.141 | 0.33 | 1.53 | 0.33 | 16.9 | 0.234 | successful candidates with high efficacy and good therapeutic window | –
CCN(C(=O)CNC(=O)OCc1ccc(NC(=O)[C@H](C)NC(=O)[C@@H](NC(=O)CCCn2nnc(CBr)c2CBr)C(C)C)cc1)C1COC(OC2C(O[C@H]3C#C/C=C\C#C[C@]4(O)CC(=O)C(NC(=O)OC)=C3/C4=C\CSSC(C)(C)CCC(=O)NCCOCCOCCOCCO)OC(C)C(NOC3CC(O)C(SC(=O)c4c(C)c(I)c(OC5OC(C)C(O)C(OC)C5O)c(OC)c4OC)C(C)O3)C2O)CC1OC (stereo partly drawn) [Compound 30] | 0.09 | 0.5 | 1.41 | 0.05 | 24 | 0.065 | successful candidates with high efficacy and good therapeutic window | –
